Patent US20240358679A1, “PHARMACEUTICAL AND FOOD COMPOSITIONS FOR THE PREVENTION, ALLEVIATION, OR TREATMENT OF INFLAMMATORY DISEASES COMPRISING 1-ALKYL-5-ARYLIDENE-2-SELENOXOIMIDAZOLIDIN-4-ONE AND ITS DERIVATIVES” (priority 2022, published 2024)

Assays:
Type in all cases: cell-based
[1] = system: SH-SY5Y cell line; assay: Cell viability (MTT assay); conditions: compound 0.5 μM; for cell viability after MPP+: MPP+ (2 mM) 24 hours; for cell viability after rotenone: rotenone (2 μM) 24 hours
Protocol: The treatment of cell lines with the toxic substances MPP+ or rotenone induces cytotoxicity due to various inflammatory and immune response abnormalities. The viability of the cells under these conditions can be measured using the MTT assay.
Specifically, the SH-SY5Y cell line was treated with 0.5 μM of Compound 1aaa (Compound 1), 1aca (Compound 24), 1ace (Compound 27), 1ahe (Compound 44) or 1aje (Compound 62) and then with MPP+ (2 mM) or rotenone (2 μM) for 24 hours. Cell viability in the case of being treated with each compound is illustrated in FIGS. 4 and 5.

[2] = system: SH-SY5Y cell line; assay: Inhibition of reactive oxygen species generation (CM-H2DCFDA fluorescence); conditions: compound 10 μM
Protocol: It is known that the administration of MPP+ or rotenone to cell lines results in the generation of reactive oxygen species (ROS) due to mitochondrial inhibition, the activation of NOX enzymes and the like. The excessively generated ROS can induce various inflammatory responses through multiple pathways. The ROS generated in this process react with the CM-H2DCFDA reagent to produce fluorescence, thereby allowing the indirect quantification of ROS.
Specifically, the SH-SY5Y cell line was treated with Compound 1aaa (Compound 1, 10 μM), apocynin (5 μM), or allopurinol (50 μM), and then with MPP+ (2 mM) or rotenone (2 μM) for 24 hours. The effect of each compound to inhibit the generation of reactive oxygen species is illustrated in FIGS. 2 and 3 as a relative percentage to that of the control group.

[3] = system: Nrf-2; assay: Nrf-2 induction, Western blot of nuclear fraction; conditions: SH-SY5Y, compound 10 μM, 24 hours, increase
Protocol: When oxidative stress caused by reactive oxygen species increases in cells, the synthesis of antioxidants increases in response to this. One of the transcription factors mediating this antioxidant response is Nrf-2. As the transcription factor Nrf-2 enters the nucleus and the expression of genes related to antioxidation increases, the antioxidant capacity of cells increases,
Specifically, the SH-SY5Y cell line was exposed to Compound 1aaa (Compound 1, 10 μM) for 24 hours and then the cells were taken. Thereafter, the nuclear fraction was extracted, then Western blotting was performed to analyze the amount of Nrf-2 in the nucleus, and the results are illustrated in FIG. 6.

[4] = system: BV2 cell lines; assay: Anti-inflammatory activity: morphological changes of LPS-treated BV2 cells; conditions: compound 0.1, 1, 10 μg/ml for 2 hours, then LPS (10 μg/ml), 24 hours
Protocol: (§1) To evaluate the anti-inflammatory activity of the compounds of the present invention, the morphological changes related to inflammation in cells and the suppression of the expression of inflammatory proteins (IL-1R and COX2) were assessed.
(§2) Specifically, BV2 cell lines were treated with compound 1aaa (0.1, 1, 10 μg/ml) for 2 hours, followed by treatment with LPS (10 μg/ml), and then cultured for 24 hours. Additionally, Western blot analysis was performed to analyze the expression of inflammatory proteins, and the results are shown in FIGS. 8 and 9.

[5] = system: IL-1β; assay: Anti-inflammatory activity: Western blot of IL-1β expression in LPS-treated BV2 cells; conditions: BV2, compound 0.1, 1, 10 μg/ml, LPS (10 μg/ml), 24 hours
Protocol: as §1, §2

[6] = system: COX2; assay: Anti-inflammatory activity: Western blot of COX2 expression in LPS-treated BV2 cells; conditions: BV2, compound 0.1, 1, 10 μg/ml, LPS (10 μg/ml), 24 hours
Protocol: as §1, §2

SMILES | cell viability after MPP+ [1] | cell viability after rotenone [1] | generation of reactive oxygen species after MPP+ ([2]; MPP+ (2 mM) 24 hours) | generation of reactive oxygen species after rotenone ([2]; rotenone (2 μM) 24 hours) | amount of Nrf-2 in the nucleus [3] | activation of BV2 macrophages (morphology) [4] | expression of IL-1β [5] | expression of COX2 [6]
CN1C(=[Se])N(CCc2ccccc2)C(=O)/C1=C\c1cc(O)cc(O)c1 [Compound 44, 5-(3,5-dihydroxybenzylidene)-1-methyl-3-phenethyl-2-selenoxoimidazolidin-4-one] | improve cell viability | improve cell viability |  |  |  |  |  | 
CN1C(=[Se])N(c2ccccc2)C(=O)/C1=C\c1ccc(O)cc1O [Compound 1, 5-(2,4-dihydroxybenzylidene)-1-methyl-3-phenyl-2-selenoxoimidazolidin-4-one] | improve cell viability | improve cell viability | effectively inhibits | effectively inhibits | about 1.5 times | inhibited the activation of BV2 macrophages in a dose-dependent manner | significantly suppressed | significantly suppressed
CCc1ccc(N2C(=O)/C(=C\c3ccc(O)cc3O)N(C)C2=[Se])cc1 [Compound 24, 5-(2,4-dihydroxybenzylidene)-3-(4-ethylphenyl)-1-methyl-2-selenoxoimidazolidin-4-one] | improve cell viability | improve cell viability |  |  |  |  |  | 
CCCCCCN1C(=O)/C(=C\c2cc(O)cc(O)c2)N(C)C1=[Se] [Compound 62, 5-(3,5-dihydroxybenzylidene)-3-hexyl-1-methyl-2-selenoxoimidazolidin-4-one] | improve cell viability | improve cell viability |  |  |  |  |  | 
CCc1ccc(N2C(=O)/C(=C\c3cc(O)cc(O)c3)N(C)C2=[Se])cc1 [Compound 27, 5-(3,5-dihydroxybenzylidene)-3-(4-ethylphenyl)-1-methyl-2-selenoxoimidazolidin-4-one] | improve cell viability | improve cell viability |  |  |  |  |  | 
